Data: patent US20250135012A1, “DENDRIMER CONJUGATES OF SMALL MOLECULE BIOLOGICS FOR INTRACELLULAR DELIVERY” (The Johns Hopkins University, priority 2021, published 2025)
Non-standard residues stand in square brackets, D forms with d. Residues, ends and D or L forms follow the SMILES beside them. Cya = N[C@@H](CS(=O)(=O)O)C(=O)O

Assays:
ERK1/2 = experiment: Western blot, ERK1/2 phosphorylation in VEGF stimulated HUVEC; assay type: cell-based, human; settings: 1 mM on a peptide basis, vs VEGF stimulated controls
Method: Cells were treated with D-ALG1001 and ALG-1001 for 24 h before activation with VEGF for 5 minutes. […] Cells were lysed with TRIZOL® and processed as previously described for qPCR analysis.
Concentration of protein was determined with the BCA protein assay kit (Thermo Scientific, Rockford, IL). Equal amount of protein was denatured and resolved on 4-15% TGX gels (Bio-Rad, Hercules, CA). Gels were transferred to nitrocellulose membranes, blocked with 3% Bovine Serum Albumin (“BSA”) at RT for 1 h, and probed for GAPDH, FAK, pFAK, MAPK, and pMAPK at 4° C. overnight. Membranes were washed thrice before incubation with HRP-conjugated secondary antibodies followed by incubation with chemiluminescent substrate for visualization.
To elucidate the mechanism through which D-ALG and ALG-1001 influence angiogenic function, cells were pre-treated with D-ALG and ALG-1001 for 24 h. The cells were then stimulated with a high dose of exogenous VEGF for 5 min after which the samples were collected for western blotting. The samples were probed for expression of total FAK, phospho-FAK (Y397), ERK1/2, phospho-ERK1/2, and Cyclophilin B (CycB) with CycB acting as the internal control.

TNFα [1] = experiment: TNFα expression in LPS stimulated RAW264.7 cells (qPCR); assay type: cell-based, murine; settings: only at the highest dose
Method: RAW264.7 cells were seeded at a density of 1×10^5 cells per well in 12-well plates 48 h before treatment. Cells were incubated with D-ALG1001 and ALG-1001 for 24 h, the treatment media was aspirated then LPS at a concentration of 10,000 Endotoxin Units/mL was added to stimulate inflammatory response. Samples were collected 3 h after LPS stimulation for qPCR analysis.
(§1) 100 μL of chloroform was added to the Trizol suspension and the aqueous phase was separated with a centrifuge at 10K RPM at 4° C. for 15 minutes. 400 μL of 2-propanol was added to the aqueous solution and spun again to pellet the RNA. The RNA was washed with 70% ethanol solution, pelleted again, and re-suspended in DEPC (ultrapure treated to inactivated enzymes) water.
(§2) To convert RNA to complementary DNA, 2 μg of RNA was converted using a High-Capacity cDNA Reverse Transcription Kit (Applied Biosystems, Foster City, CA). Samples were analyzed using STEPONE PLUS® real-time PCR system (Applied Biosystems) with SYBR Green reagent (ThermoFisher Scientific). Relative expression was quantified with ΔΔCt calculations normalized to controls. Primers for GAPDH was obtained from Bio-Rad Laboratories (Hercules, CA). Primers were purchased from Integrated DNA Technologies (Coralville, IA). Primers for TNFα were: […]

CNV area = experiment: Biodistribution after systemic administration, laser CNV model; assay type: in vivo, Brown Norway rats; settings: systemic (intraperitoneal) administration, 150 μg
Method: For biodistribution studies, a dose of Cy5-D-ALG1001-Cy3 and ALG-1001-Cy3 at 150 μg/100 μL was administered to each animal intraperitoneally on the day of CNV induction (Day 0). Animals were sacrificed at 1-, 2-, 3-, and 4-day time points and enucleated.
After fixation, the posterior segment of the eye was dissected out and the retina separated from the choroid. Tissues stained with FITC-labeled isolectin (GS IB4) (Life Technologies, Eugene, OR) for blood vessels and monocytes. Eyes were mounted by introducing four radial relaxation cuts. Samples for biodistribution were imaged under a confocal 710 microscope (Carl Zeiss, Oberkochen, Germany). Samples for CNV quantification were imaged with an Axiovert phase contrast microscope. All images were processed with ImageJ.
Fluorescently labeled Cy3-ALG-1001 peptide and dual labeled Cy5-dendrimer-ALG-Cy3 were systemically injected on day 0 (same day as CNV induction) and choroidal tissues were collected at set time points. Confocal microscopy was used to monitor the presence of ALG-1001 peptide (Cy3), dendrimer carrier (Cy5), CNV formation (Isolectin), and macrophages (Iba1). […] In comparison, D-ALG was able to not only reach the CNV area within 24 h after systemic injection but also remain in the target area up to 4 days post administration from the co-localized presence of both Cy5 and Cy3 signals.

FAK = experiment: Choroid total FAK and phospho-FAK (Y397) ELISA; assay type: in vivo, Brown Norway rats
Method: (§3) In brief, 500 μL of T-Per supplemented with PHOSSTOP® and proteinase inhibitor cocktail was added to tubes containing dissected choroid. A scoop of 1.6 mm steel homogenization beads was added to each sample and then placed in […]® LT (Qiagen) at an oscillation frequency of 50/s for 15 minutes. For qPCR, 200 μL of TRIZOL® was added to tubes containing choroid and a scoop of 1.6 mm steel homogenization beads was added. The samples were placed in […]® LT at an oscillation frequency of 50/s for 15 minutes.
For protein extracted from tissues, total FAK and FAK (Phospho) [pY397] ELISA kits (Invitrogen) were used to quantify the level of protein expression and the measured protein expression was normalized to the total protein amount of each sample as determined from BCA assays.
(§4) To evaluate activation of FAK and ERK pathways, eyes were enucleated at set time points and the choroidal tissue dissected out. Tissues were submerged in a mixture of T-per, proteinase inhibitor, and PhosStop with stainless steel homogenization beads and homogenized to produce protein extracts. Total FAK, total ERK, p-FAK (Y397), and p-44/42 ERK ELISA kits were used to quantify the amount of total and phosphorylated proteins in FAK and ERK pathways. […] However, the level of total FAK protein in ALG-1001 treated animals was elevated at day 14.

p44/42 ERK = experiment: Choroid total ERK and phospho-p44/42 ERK ELISA; assay type: in vivo, Brown Norway rats
Method: as §3, §4

VEGF-A = experiment: Choroid VEGF-A qPCR; assay type: in vivo, Brown Norway rats; settings: 7 and 14 days
Method: as §3, §1
as §2, with “IA).” for “IA). Primers for TNFα were:”

TNFα [2] = experiment: Choroid TNFα qPCR; assay type: in vivo, Brown Norway rats; settings: 7 and 14 days
Method: as §3, §1
as §2, with “IA).” for “IA). Primers for TNFα were:”

IL1β = experiment: Choroid IL1β qPCR; assay type: in vivo, Brown Norway rats; settings: 7 and 14 days
Method: as §3, §1
as §2, with “IA).” for “IA). Primers for TNFα were:”

proteinase K = proteinase K (Parengyodontium album, UniProt P06873); experiment: in vitro; settings: proteinase K (isolated protease)
Chain of proteinase K (P06873 106-384): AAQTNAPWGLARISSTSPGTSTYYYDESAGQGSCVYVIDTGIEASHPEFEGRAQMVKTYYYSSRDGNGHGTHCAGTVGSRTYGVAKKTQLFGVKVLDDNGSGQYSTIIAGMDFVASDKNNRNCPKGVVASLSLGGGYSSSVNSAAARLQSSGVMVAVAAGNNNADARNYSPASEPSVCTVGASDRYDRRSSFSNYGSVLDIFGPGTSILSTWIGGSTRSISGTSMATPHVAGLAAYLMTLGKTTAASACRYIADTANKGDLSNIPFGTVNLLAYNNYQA
Method: Proteinase K stock solution was purchased from ThermoFisher and used as is. […] The mixture was incubated at 37° C. and at set time points, 100 μL of the mixture was removed and analyzed through HPLC.

Q: Which results are given for `C[C@@H](O)[C@H](NC(=O)[C@H](CS(=O)(=O)O)NC(=O)CNC(=O)[C@H](CCCNC(=N)N)NC(=O)CN)C(=O)N1CCC[C@H]1C(=O)O` [ALG-1001] (H-GRG[Cya]TP-OH; N-terminus and C-terminus assumed)?
A: reduction of phospho-ERK1/2 (ERK1/2): ~60%; reduction of TNFα expression (TNFα [1]): 20%; time remaining in the CNV target area (CNV area): up to 2 days; p-FAK protein (FAK; 7 and 14 days): reduction of p-FAK; total FAK protein (FAK; day 14): elevated; total ERK (p44/42 ERK; day 7): remained relatively constant; total ERK (p44/42 ERK; day 14, vs untreated animals): slight reduction; phospho-p44/42 ERK (p44/42 ERK; rat, in vivo): decrease of p44/42 ERK production; VEGF-A production (qPCR) (VEGF-A): lower VEGF-A production at 14 days only; TNFα level (qPCR) (TNFα [2]): lower TNFα levels across both time points; IL1β expression (qPCR) (IL1β): only reduced at day 14; metabolised at 0.5 h, 2 mg/mL (proteinase K): ~50%; metabolised at […], 2 mg/mL (proteinase K): ~90%
